Several values for one entry are separate records, joined by “and”; a condition that tells them apart may be missing. Equal entries are not always repeated. Where two headings read alike, the source gives them in different places.
Assays:
[1] = system: Human hepatocarcinoma cell line (Hep G2); test: Cytotoxicity assay (MTT); assay type: cell-based; settings: 72 h
Protocol: (§1) Human hepatocarcinoma cell line (Hep G2, ATCC CRL-11997TM) was used for cytotoxicity studies as previously described. The cells were grown in complete medium (DMEM:F12 containing L-glutamine and sodium bicarbonate, 10% FBS, 1% penicillin/streptomycin, Thermo Fisher Scientific) at 37 °C in 5% CO2 environment. Cells (198 µL, 5 × 10^5/mL) were seeded into 96-well plates and incubated overnight. The cells were treated with the compounds (160–1.25 µM, in triplicates) or DMSO (1%) for 72 h. The cell medium was removed and replaced with DMEM:F12 medium containing MTT (0.5 mg/mL) was added to the cells and incubated for 1.5 h. The MTT-containing medium was gently removed and replaced with DMSO (200 µL/well). The contents of each well were then repeatedly mixed with a multichannel pipette and incubated for 10 min. The plates were read at 570 nm. DMSO-treated (1%) cells were used as negative assay control and SDS (10%) was used as assay positive control. Percent cell viabilities were expressed as a percentage of the mean viability of DMSO-treated (1%) cells.

[2] = system: P. falciparum 3D7 (Pf3D7, chloroquine-sensitive strain); test: Pf3D7 asexual blood-stage growth inhibition, SYBR Green fluorescence assay; assay type: cell-based, Plasmodium falciparum; settings: for Pf3D7 selectivity index (SI, CC50/EC50): Hep G2 CC50 / Pf3D7 EC50; for EC50: read-out: Pf3D7 EC50; for Antiplasmodial activity against Pf3D7 (in words): chloroquine-sensitive strain
Protocol: a. Pf3D7: 100 μL of complete media (Sigma-Aldrich’s RPMI 1640, 25 mM HEPES, 10 μg/mL gentamicin, 0.5 mM hypoxanthine supplemented with NaHCO3 and 0.5% Albumax II, 37 °C) containing compounds (50–0.3 µM) or 100 µM chloroquine were added to 96 well plates in triplicates. This was followed by the addition of 100 µL erythrocytic asexual culture of Pf3D7 (10% hematocrit and 0.25% ring stage parasitemia), maintained at atmospheric conditions of 1% oxygen, 5% carbon dioxide, and 94% nitrogen, and allowed to grow for 96 h at 37 °C. The cultures were then frozen at −80 °C overnight and thawed at 37 °C for 4 h. Aliquots (100 µL) from each well were transferred to black 96-well plates, 100 μL of 2× SYBR Green (Molecular Probes) in lysis buffer (20 mM Tris at pH 7.5, 5 mM EDTA, 0.008% saponin, 0.08% Triton X-100) was added to each well and mixed thoroughly with a pipette. The plates were incubated in the dark at room temperature for 1 h and read at λex 485 nm and λem 530 nm. Infected and untreated red blood cells (iRBC) cultures served as negative control. Percent inhibitory activities were calculated using (=100 − 100*((Sample − 100 µM CQ)/(iRBC − 100 µM CQ)) and used to plot sigmoidal inhibition curves to obtain the EC50 values.

PfNF54 = PfNF54 erythrocytic stage growth inhibition, [3H]-hypoxanthine incorporation assay; assay type: cell-based, Plasmodium falciparum; settings: for EC50: erythrocytic stages, 48 h + 24 h with 3H-hypoxanthine; for PfNF54 selectivity index (SI, CC50/EC50): Hep G2 CC50 / PfNF54 EC50
Protocol: b. PfNH54 and PfK1: The growth inhibitory activities of the compounds against erythrocytic stages of PfNH54 and PfK1 were determined using the [^3H]-hypoxanthine incorporation assay as previously reported. […] The CPMs were expressed as a percentage of the CPMs from the untreated controls and used to estimate the EC50 from sigmoidal inhibition curves. Artemisinin and CQ were used as positive controls.

PfK1 = PfK1 erythrocytic stage growth inhibition, [3H]-hypoxanthine incorporation assay; assay type: cell-based, Plasmodium falciparum; settings: for EC50: erythrocytic stages, 48 h + 24 h with 3H-hypoxanthine; for Antiplasmodial activity against K1 strain (in words): multidrug-resistant strain; for PfK1 selectivity index (SI, CC50/EC50): Hep G2 CC50 / PfK1 EC50
Protocol: b. PfNH54 and PfK1: The growth inhibitory activities of the compounds against erythrocytic stages of PfNH54 and PfK1 were determined using the [^3H]-hypoxanthine incorporation assay as previously reported. Parasites in RPMI 1640 medium containing […] (without hypoxanthine) were treated with compounds (50–0.3 µM) in 96 well plates for 48 h at 37 °C in 92% N2, 5% CO2, and 3% O2. ^3H-hypoxanthine (0.5 μCi) was added to each well, incubated for an additional 24 h, harvested onto glass-fiber filters, and washed with distilled water. Radioactivity at each compound concentration was counted using a Betaplate™ liquid scintillation counter (Wallac, Zurich), and the results were recorded as counts per minute (CPM) per well. The CPMs were expressed as a percentage of the CPMs from the untreated controls and used to estimate the EC50 from sigmoidal inhibition curves. Artemisinin and CQ were used as positive controls.

Cytotoxicity assay (MTT) = assay type: cell-based, Human; settings: human
Protocol: as §1

[3] = erythrocytic asexual culture, 96 h, SYBR Green
[4] = Plasmodium falciparum, 3D7, erythrocytic asexual culture, 96 h, SYBR Green
[5] = Plasmodium falciparum, 3D7, 96 h

| SMILES | CC50 [1] | Pf3D7 selectivity index (SI, CC50/EC50) [2] | EC50 [2, 3] | EC50 (PfNF54) | EC50 (PfK1) | Antiplasmodial activity against K1 strain (in words) (PfK1) | other results |
| --- | --- | --- | --- | --- | --- | --- | --- |
| COc1ccc(NC(=O)CC2=CCC3CC2C3(C)C)c2ncccc12 (single isomer, unassigned) [Compound 1] | 70.8 ± 1.26 µM | 13.4 | 5.25 ± 0.7 µM |  |  |  |  |
| COc1ccc(NC(=O)CC2=CCC3CC2C3(C)C)c2ncccc12 (single isomer, unassigned) [Compound 2] | > 160 µM | > 58.8 | 2.72 ± 0.28 µM |  |  |  |  |
| CC1(C)C2CC=C(CC(=O)Nc3cccc4cccnc34)C1C2 (single isomer, unassigned) [Compound 3, 2-(6,6-dimethylbicyclo[3.1.1]hept-2-en-2-yl)-N-(quinolin-8-yl) Acetamide] | > 160 µM | > 73.1 | 2.19 ± 0.15 µM | > 50 µM | > 50 µM | inactive | Antiplasmodial activity against NF54 strain (in words) (PfNF54): inactive |
| CC1(C)C2CC=C(CC(=O)Nc3cccc4cccnc34)C1C2 (single isomer, unassigned) [Compound 4, 2-(6,6-dimethylbicyclo[3.1.1]hept-2-en-2-yl)-N-(quinolin-8-yl) Acetamide] | > 160 µM | > 62.3 | 2.57 ± 0.02 µM | > 50 µM | > 50 µM | inactive | Antiplasmodial activity against NF54 strain (in words) (PfNF54): inactive |
| Cc1cc(C(=O)OCCC2=CC[C@@H]3C[C@H]2C3(C)C)c2ccc(Cl)cc2n1 (stereo in doubt) [Compound 13, 2-((1S,5R)-6,6-dimethylbicyclo[3.1.1]hept-2-en-2-yl)ethyl-7-chloro-2-methylquinoline-4-carboxylate] |  | > 6.9 |  |  |  |  | CC50 at 72 h (Cytotoxicity assay (MTT); read-out: Hep G2 CC50): > 160 µM; EC50 [2, 4]: 23 ± 2 µM; Antiplasmodial activity against Pf3D7 (in words) [2]: very weak antiplasmodial activity |
| CC1(C)[C@@H]2CC=C(CCOC(=O)c3cc4ccccc4nc3Cl)[C@H]1C2 (stereo in doubt) [Compound 14, 2-((1S,5R)-6,6-dimethylbicyclo[3.1.1]hept-2-en-2-yl)ethyl-2-chloroquinoline-3-carboxylate] |  | 13.6 |  |  |  | inactive | CC50 at 72 h (Cytotoxicity assay (MTT); read-out: Hep G2 CC50): 55.2 ± 1.2 µM; Antiplasmodial activity against NF54 strain (in words) (PfNF54): inactive; EC50 [2, 4]: 4.04 ± 0.03 µM; Antiplasmodial activity against Pf3D7 (in words) [2]: moderately active |
| Cc1cc(C(=O)OCC[C@@]23O[C@@H]2C[C@@H]2C[C@H]3C2(C)C)c2ccc(Cl)cc2n1 (stereo in doubt) [Compound 16, 2-((1S,2S,4R,6S)-7,7-dimethyl-3-oxatricyclo[4.1.1.0 2,4]octan-2-yl)ethyl-7-chloro-2-methylquinoline-4-carboxylate] |  | 1.9 |  |  |  |  | CC50 at 72 h (Cytotoxicity assay (MTT); read-out: Hep G2 CC50): 76.8 ± 6.5 µM; EC50 [2, 4]: 40.4 ± 1.58 µM; Antiplasmodial activity against Pf3D7 (in words) [2]: weakly active but nonselective |
| C[C@@H]1CC[C@H]2[C@@H](C)C(=O)O[C@@H]3O[C@@]4(C)CC[C@@H]1[C@]32OO4 [Artemisinin, reference compound] |  |  |  |  |  |  | EC50 (PfNF54; Plasmodium falciparum, 72 h): 0.017 ± 0.005 µM; EC50 (PfK1; Plasmodium falciparum, 72 h): 0.011 ± 0.005 µM |
| CCN(CC)CCCC(C)Nc1ccnc2cc(Cl)ccc12 (stereo not shown) [Chloroquine, reference compound] |  |  |  |  |  |  | EC50 [2, 5]: 0.004 ± 0.001 µM |
| CC1(C)[C@@H]2CC=C(CC(=O)Nc3ccnc4ccccc34)[C@H]1C2 [Compound 5, 2-((1S,5R)-6,6-dimethylbicyclo[3.1.1]hept-2-en-2-yl)-N-(quinolin-4-yl) Acetamide] | 3.98 ± 0.7 µM | 0.2 | 26.4 ± 1.7 µM | 23.4 ± 0.14 µM | 13.9 ± 2.1 µM | weakly active | Antiplasmodial activity against NF54 strain (in words) (PfNF54): weakly active; PfNF54 selectivity index (SI, CC50/EC50) (PfNF54): 0.2; PfK1 selectivity index (SI, CC50/EC50) (PfK1): 0.3 |
| CC1(C)[C@@H]2CC=C(CC(=O)Nc3ccnc4cc(Cl)ccc34)[C@H]1C2 [Compound 6, N-(7-chloroquinolin-4-yl)-2-((1S,5R)-6,6-dimethylbicyclo[3.1.1]hept-2-en-2-yl) Acetamide] | 14.3 ± 1.2 µM | 0.8 | 17.1 ± 1.8 µM | 21.4 ± 1.7 µM | 7.84 ± 0.57 µM | weakly active | Antiplasmodial activity against NF54 strain (in words) (PfNF54): weakly active; PfNF54 selectivity index (SI, CC50/EC50) (PfNF54): 0.7; PfK1 selectivity index (SI, CC50/EC50) (PfK1): 1.8 |
| CC1(C)[C@@H]2CC=C(CC(=O)Oc3ccnc4ccccc34)[C@H]1C2 [Compound 7, quinolin-4-yl-2-((1S,5R)-6,6-dimethylbicyclo[3.1.1]hept-2-en-2-yl) Acetate] | > 160 µM |  | > 50 µM | > 50 µM | > 28 µM |  |  |
| CC1(C)[C@@H]2CC=C(CC(=O)Oc3ccnc4cc(Cl)ccc34)[C@H]1C2 [Compound 8, 7-chloroquinolin-4-yl-2-((1S,5R)-6,6-dimethylbicyclo[3.1.1]hept-2-en-2-yl) Acetate] | > 160 µM |  | > 50 µM | 23.3 µM | 0.16 µM and 0.164 µM | sub-micromolar EC50 | PfNF54 selectivity index (SI, CC50/EC50) (PfNF54): > 6.8; PfK1 selectivity index (SI, CC50/EC50) (PfK1): > 976 |
| Cc1cc(OC(=O)CC2=CC[C@@H]3C[C@H]2C3(C)C)c2ccc(Cl)c(C)c2n1 [Compound 9, 7-chloro-2,8-dimethylquinolin-4-yl-2-((1S,5R)-6,6-dimethylbicyclo[3.1.1]hept-2-en-2-yl) Acetate] | > 160 µM | > 26 | 6.2 µM and 6.15 µM |  |  |  |  |
| CC1(C)[C@@H]2CC=C(CC(=O)Oc3cc(C(F)(F)F)nc4ccc(F)cc34)[C@H]1C2 [Compound 10, 6-fluoro-2-(trifluoromethyl)quinolin-4-yl-2-((1S,5R)-6,6-dimethylbicyclo[3.1.1]hept-2-en-2yl) Acetate] | 48.5 ± 1.12 µM | 2.3 | 21.4 ± 5.06 µM |  |  |  |  |
| Cc1c(Cl)ccc2c(OC(=O)CC3=CC[C@@H]4C[C@H]3C4(C)C)ccnc12 [Compound 11, 7-chloro-8-methylquinolin-4-yl-2-((1S,5R)-6,6-dimethylbicyclo[3.1.1]hept-2-en-2-yl) Acetate] | > 160 µM | >9.1 | 17.6 ± 5.27 µM |  |  |  |  |
| CC1(C)[C@@H]2CC=C(CC(=O)Oc3cc(C(F)(F)F)nc4c(C(F)(F)F)cccc34)[C@H]1C2 [Compound 12, 2,8-bis(trifluoromethyl)quinolin-4-yl-2-((1S,5R)-6,6-dimethylbicyclo[3.1.1]hept-2-en-2-yl) Acetate] | 21.8 ± 1.1 µM | 0.7 | 29.6 ± 0.93 µM |  |  |  |  |
| CC1(C)[C@H]2CC=C(CCOC(=O)c3cc4ccccc4[nH]3)[C@@H]1C2 [Compound 15, 2-((1R,5S)-6,6-dimethylbicyclo[3.1.1]hept-2-en-2-yl)ethyl-1H-indole-2-carboxylate] |  | > 8.5 |  |  |  |  | CC50 at 72 h (Cytotoxicity assay (MTT); Hep G2 cells (human hepatocarcinoma cell line)): > 40 µM; EC50 [2, 5]: 4.71 ± 0.07 µM; Antiplasmodial activity against Pf3D7 (in words) [2]: moderately active |
| OC(c1cc(C(F)(F)F)nc2c(C(F)(F)F)cccc12)C1CCCCN1 (stereo not shown) [Mefloquine, reference compound] |  |  |  |  |  |  | EC50 (PfNF54; Plasmodium falciparum, 72 h): 0.003 ± 0.002 µM; EC50 [2, 4]: 2.33 ± 2.29 µM; EC50 (PfK1; Plasmodium falciparum, 72 h): 0.117 ± 0.015 µM |

— publication PMC7917639, “Nopol-Based Quinoline Derivatives as Antiplasmodial Agents” (Molecules, 2021)
